Values after ≈ are worked out from the molar mass of the structure shown.
Tested on: T1, Candida rugosa lipase (CRL)
T1 construct: gene LIP1
Test: p-nitrophenyl laurate hydrolysis, absorbance at […] nm
Format: biochemical, Diutina rugosa
Conditions: substrate p-NPL, pH 7, 37 °C, 15 min preincubation with enzyme; reference compound

Row | Compound | IC50 value
1 | CCCCCCCCCCC[C@@H](C[C@@H]1OC(=O)[C@H]1CCCCCC)OC(=O)[C@H](CC(C)C)NC=O [Orlistat] | 60 ± 0 µg/mL (≈ 121 µM)
2 | O=c1c(O)c(-c2ccc(O)c(O)c2)oc2cc(O)cc(O)c12 [Quercetin] | 320 ± 4 µg/mL (≈ 1060 µM)

— publication PMC11913368, “Antilipase activities of cultivated peppermint and rosemary essential oils: in vitro and in silico studies” (Turkish Journal of Biology, 2025)
